Assay [1] has as its system Mus musculus. Description: Memory enhancing effect in ICR mouse assessed as reversal of scopolamine-induced amnesia by measuring step-through latencies at 0.25 to 5 mg/kg, po administered 1 hr prior to acquisition trial measured after 24 hrs by passive avoidance test. The format is functional, organism-based.
The subject of assay [2] is Mus musculus. Description: Memory enhancing effect in ICR mouse assessed as reversal of scopolamine-induced amnesia by measuring step-through latencies at 1 mg/kg, po administered 1 hr prior to acquisition trial measured after 24 hrs by passive avoidance test relative to control. Type of assay: functional, organism-based. The arrangement: dose 1 mg/kg.
Assay [3] has as its system Mus musculus. Description: Memory enhancing effect in ICR mouse assessed as reversal of scopolamine-induced amnesia by measuring step-through latencies at 0.5 to 5 mg/kg, po after 1 hr by passive avoidance test. Type of assay: functional, organism-based.
Assay [4] has as its target T1, Acetylcholinesterase (Mus musculus, UniProt P21836).
T1 sequence (P21836 whole entry): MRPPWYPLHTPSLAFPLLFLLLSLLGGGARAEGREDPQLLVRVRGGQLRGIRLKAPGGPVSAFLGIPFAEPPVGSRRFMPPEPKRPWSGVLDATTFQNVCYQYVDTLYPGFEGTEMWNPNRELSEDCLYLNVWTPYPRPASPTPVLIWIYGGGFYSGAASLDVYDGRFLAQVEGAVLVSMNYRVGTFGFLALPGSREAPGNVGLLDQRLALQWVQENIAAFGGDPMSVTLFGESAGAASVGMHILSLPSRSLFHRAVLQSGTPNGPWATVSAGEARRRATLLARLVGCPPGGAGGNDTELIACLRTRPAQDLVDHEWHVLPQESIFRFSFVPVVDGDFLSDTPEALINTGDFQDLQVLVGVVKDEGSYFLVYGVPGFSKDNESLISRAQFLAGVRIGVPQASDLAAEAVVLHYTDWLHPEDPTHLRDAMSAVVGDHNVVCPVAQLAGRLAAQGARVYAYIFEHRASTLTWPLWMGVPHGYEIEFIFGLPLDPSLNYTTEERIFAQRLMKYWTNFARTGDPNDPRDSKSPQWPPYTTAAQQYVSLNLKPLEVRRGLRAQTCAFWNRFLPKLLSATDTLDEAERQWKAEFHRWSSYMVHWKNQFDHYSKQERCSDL
Description: Inhibition of ICR mouse brain AChE using acetylthiocholine iodide as substrate incubated 10 mins prior to substrate addition measured after 10 mins by Ellman's method. In general terms: In Ellman's method for cholinesterases, released thiocholine reacts with DTNB.

The test system of assay [5] is Mus musculus. The assay is described as follows: Memory enhancing effect in ICR mouse assessed as reversal of scopolamine-induced amnesia by measuring step-through latencies at 2 mg/kg, po administered 1 hr prior to acquisition trial measured after 24 hrs by passive avoidance test relative to control. The format is functional, organism-based. Set-up: dose 2 mg/kg.

pIC50: −log10 of the molar value. Active and inactive are the calls of the source. The rule behind the calls is not given here.

For `O=c1ccc2cc(OCCCN3CCCC3)c(O)cc2o1`, the outcome in assay [1] and in assay [2] was Active. In addition, the outcome in assay [3] was inactive. For the same compound, the pIC50 in assay [4] was 5.54.
In the case of `COc1cc2ccc(=O)oc2cc1O` [SCOPOLETIN], the pIC50 in assay [4] was 3.32.
Consider `CC(C)NCCCOc1cc2ccc(=O)oc2cc1O`, for which, in assay [4], the negative-log IC50 (pIC50) is 4.57.
For the compound `O=c1ccc2cc(OCCN3CCCC3)c(O)cc2o1`, the result in assay [5] and in assay [1] was Active. Moreover, the result in assay [3] was inactive. The same compound showed a pIC50 in assay [4] of 5.16.
With `CCN(CC)CCOc1cc2ccc(=O)oc2cc1O`, the negative logarithm of the IC50 (pIC50) in assay [4] was 4.73.
As for `COc1ccc2c3c1O[C@H]1C[C@@H](O)C=C[C@@]31CCN(C)C2`, the result in assay [2] was Active.
`O=c1ccc2cc(OCCCN3CCCCC3)c(O)cc2o1` showed a pIC50 in assay [4] of 4.72.
Take `O=c1ccc2cc(OCCN3CCCCC3)c(O)cc2o1`: the pIC50 in assay [4] is 4.92.
`CCN(CC)CCCOc1cc2ccc(=O)oc2cc1O`: the negative-log IC50 (pIC50) in assay [4] was 4.52.

As usually defined, the pIC50 is −log10 of the IC50, conventionally taken in molar units. Higher therefore signals a small IC50.

The values are drawn from ChEMBL document CHEMBL3112396, “Synthesis of aminoalkyl-substituted coumarin derivatives as acetylcholinesterase inhibitors” (Bioorg Med Chem, 2014).
